Data from ChEMBL document CHEMBL1121776, “Folate antagonists. 18. Synthesis and antimalarial effects of N6-(arylmethyl)-N6-methyl-2,4,6-pteridinetriamines and related N6,N6-disubstituted 2,4,6-pteridinetriamines” (1981).
In brackets after ≈: the same amount, converted by molar mass.

Tests used:
Assay type in all cases: functional
Mus musculus [1] = assay: Parenteral antimalarial effect against Plasmodium berghei in mice (Mus musculus) at a dose of 160 mg/kg subcutaneously; Number of mice (Mus musculus) surviving at 60 days post infection and cured 3/5; details: route subcutaneous
Mus musculus [2] = assay: Parenteral antimalarial effect against Plasmodium berghei in mice (Mus musculus) at a dose of 80 mg/kg subcutaneously; Number of mice (Mus musculus) surviving at 60 days post infection and cured 2/5; details: route subcutaneous
Mus musculus [3] = assay: Parenteral antimalarial effect against Plasmodium berghei in mice (Mus musculus) at a dose of 10sc mg/kg
Mus musculus [4] = assay: Parenteral antimalarial effect against Plasmodium berghei in mice (Mus musculus) at a dose of 20sc mg/kg
Mus musculus [5] = assay: Parenteral antimalarial effect against Plasmodium berghei in mice (Mus musculus) at a dose of 320 mg/kg subcutaneously; Number of mice (Mus musculus) surviving at 60 days post infection and cured 3/5; details: route subcutaneous
Mus musculus [6] = assay: Parenteral antimalarial effect against Plasmodium berghei in mice (Mus musculus) at a dose of 40 mg/kg subcutaneously; details: route subcutaneous
Escherichia coli [7] = assay: In vitro antibacterial effect against Escherichia coli Vogel by using gradient plate test
Mus musculus [8] = assay: Parenteral antimalarial effect against Plasmodium berghei in mice (Mus musculus) at a dose of 160 mg/kg subcutaneously; Number of mice (Mus musculus) surviving at 60 days post infection and cured 10/10; details: route subcutaneous
Mus musculus [9] = assay: Parenteral antimalarial effect against Plasmodium berghei in mice (Mus musculus) at a dose of 640 mg/kg subcutaneously; Number of mice (Mus musculus) surviving at 60 days post infection and cured 10/10; details: route subcutaneous
Mus musculus [10] = assay: Parenteral antimalarial effect against Plasmodium berghei in mice (Mus musculus) at a dose of 320 subcutaneous mg/kg; Number of mice (Mus musculus) surviving at 60 days post infection and cured 5/5
[11] = test system: Mycobacterium tuberculosis; assay: In vitro antibacterial effect against Mycobacterium tuberculosis H37Rv by using gradient plate test
Pseudomonas aeruginosa [12] = assay: In vitro antibacterial effect against Pseudomonas aeruginosa 28 by using gradient plate test
Shigella sonnei [13] = assay: In vitro antibacterial effect against Shigella sonnei C-10 by using gradient plate test
Staphylococcus aureus [14] = assay: In vitro antibacterial effect against Staphylococcus aureus S18713 by using gradient plate test
Enterococcus faecalis [15] = assay: In vitro antibacterial effect against Streptococcus faecalis MGH-2
Staphylococcus aureus [16] = assay: In vitro antibacterial effect against Staphylococcus aureus UC-76 by using gradient plate test
Mus musculus [17] = assay: Parenteral antimalarial effect against Plasmodium berghei in mice (Mus musculus) at a dose of 160 mg/kg subcutaneously; Number of mice (Mus musculus) surviving at 60 days post infection and cured 8/10; details: route subcutaneous
Mus musculus [18] = assay: Parenteral antimalarial effect against Plasmodium berghei in mice (Mus musculus) at a dose of 40sc mg/kg; Number of mice (Mus musculus) surviving at 60 days post infection and cured 6/10
Mus musculus [19] = assay: Parenteral antimalarial effect against Plasmodium berghei in mice (Mus musculus) at a dose of 160 subcutaneously mg/kg
Mus musculus [20] = assay: Parenteral antimalarial effect against Plasmodium berghei in mice (Mus musculus) at a dose of 80 mg/kg subcutaneously; details: route subcutaneous
Mus musculus [21] = assay: Parenteral antimalarial effect against Plasmodium berghei in mice (Mus musculus) at a dose of 640 subcutaneously mg/kg; Number of mice (Mus musculus) surviving at 60 days post infection and cured 4/10
Mus musculus [22] = assay: Parenteral antimalarial effect against Plasmodium berghei in mice (Mus musculus) at a dose of 320 subcutaneously mg/kg; Number of mice (Mus musculus) surviving at 60 days post infection and cured 1/5
Escherichia coli [23] = assay: In vitro antibacterial effect against E. c. Vogel by using gradient plate test
Mus musculus [24] = assay: Parenteral antimalarial effect against Plasmodium berghei in mice (Mus musculus) at a dose of 160 mg/kg subcutaneously; Number of mice (Mus musculus) surviving at 60 days post infection and cured 6/10; details: route subcutaneous
Mus musculus [25] = assay: Parenteral antimalarial effect against Plasmodium berghei in mice (Mus musculus) at a dose of 320 mg/kg subcutaneously; Number of mice (Mus musculus) surviving at 60 days post infection and cured 3; No of toxic deaths 2; details: route subcutaneous
Mus musculus [26] = assay: Parenteral antimalarial effect against Plasmodium berghei in mice (Mus musculus) at a dose of 160 mg/kg subcutaneously; Number of mice (Mus musculus) surviving at 60 days post infection and cured 5/5; details: route subcutaneous
Mus musculus [27] = assay: Parenteral antimalarial effect against Plasmodium berghei in mice (Mus musculus) at a dose of 80 subcutaneously mg/kg; Number of mice (Mus musculus) surviving at 60 days post infection and cured 7/10
Mus musculus [28] = assay: Parenteral antimalarial effect against Plasmodium berghei in mice (Mus musculus) at a dose of 20 mg/kg subcutaneously; Number of mice (Mus musculus) surviving at 60 days post infection and cured 4/10; details: route subcutaneous
Mus musculus [29] = assay: Parenteral antimalarial effect against Plasmodium berghei in mice (Mus musculus) at a dose of 40sc mg/kg; Number of mice (Mus musculus) surviving at 60 days post infection and cured 3/5
Pseudomonas aeruginosa [30] = assay: In vitro antibacterial effect against P.a 28 by using gradient plate test
Shigella sonnei [31] = assay: In vitro antibacterial effect against S. s C-10 by using gradient plate test
Staphylococcus aureus [32] = assay: In vitro antibacterial effect against S. a. S18713 by using gradient plate test
Staphylococcus aureus [33] = assay: In vitro antibacterial effect against S. a. UC-76 by using gradient plate test
Enterococcus faecalis [34] = assay: In vitro antibacterial effect against S. f MGH-2
Mus musculus [35] = assay: Parenteral antimalarial effect against Plasmodium berghei in mice (Mus musculus) at a dose of 160 mg/kg subcutaneously 10/10; details: route subcutaneous
Mus musculus [36] = assay: Parenteral antimalarial effect against Plasmodium berghei in mice (Mus musculus) at a dose of 320 mg/kg subcutaneously; 5/5; details: route subcutaneous
Mus musculus [37] = assay: Parenteral antimalarial effect against Plasmodium berghei in mice (Mus musculus) at a dose of 20 mg/kg subcutaneously; Number of mice (Mus musculus) surviving at 60 days post infection and cured 2/5; details: route subcutaneous
Mus musculus [38] = assay: Parenteral antimalarial effect against Plasmodium berghei in mice (Mus musculus) at a dose of 80 mg/kg subcutaneously; Number of mice (Mus musculus) surviving at 60 days post infection and cured 10/10; details: route subcutaneous
Mus musculus [39] = assay: Parenteral antimalarial effect against Plasmodium berghei in mice (Mus musculus) at a dose of 20 mg/kg subcutaneously; Number of mice (Mus musculus) surviving at 60 days post infection and cured 8/15; details: route subcutaneous
[40] = test system: Mycobacterium tuberculosis; assay: In vitro antibacterial effect against M. t. H37Rv by using gradient plate test

Compound | MST (Mus musculus [3]) | MST (Mus musculus [4]) | MIC (Escherichia coli [7]) | MST (Mus musculus [9]) | MIC [11] | MIC (Pseudomonas aeruginosa [12]) | MIC (Shigella sonnei [13]) | MIC (Staphylococcus aureus [14]) | MIC (Enterococcus faecalis [15]) | MIC (Staphylococcus aureus [16]) | MIC (Escherichia coli [23]) | other results
Nc1nc(N)c2nc(N3CCCC3c3ccc(Cl)cc3)cnc2n1 (configuration not stated) | 7.9 days | 10.1 days | – | – | – | – | – | – | – | – | – | MST (Mus musculus [1]): 3 days; MST (Mus musculus [2]): 2 days; MST (Mus musculus [5]): 3 days; MST (Mus musculus [6]): 12.1 days
CN(Cc1cccc2ccccc12)c1cnc2nc(N)nc(N)c2n1 | 4 days | 5 days | > 25 µg/mL | 10 days | > 25 µg/mL | > 25 µg/mL | > 25 µg/mL | < 0.25 µg/mL | < 0.25 µg/mL | < 0.25 µg/mL | – | MST (Mus musculus [8]): 10 days; MST (Mus musculus [10]): 5 days
COc1cc(CN(C)c2cnc3nc(N)nc(N)c3n2)cc(OC)c1OC | – | 5.5 days | > 25 µg/mL | 10 days | > 25 µg/mL | > 25 µg/mL | > 25 µg/mL | < 0.25 µg/mL | < 0.25 µg/mL | < 0.25 µg/mL | – | MST (Mus musculus [17]): 8 days; MST (Mus musculus [18]): 6 days
CN(Cc1cccc(Br)c1)c1cnc2nc(N)nc(N)c2n1 | – | 6.9 days | – | – | – | – | – | – | – | – | – | MST (Mus musculus [19]): 12.8 days; MST (Mus musculus [20]): 10.7 days; MST (Mus musculus [21]): 4 days; MST (Mus musculus [22]): 1 days; MST (Mus musculus [6]): 10.2 days
CN(Cc1ccccc1Cl)c1cnc2nc(N)nc(N)c2n1 | – | 9.5 days | – | – | 5 µg/mL (≈ 15.8 µM) | > 25 µg/mL | > 25 µg/mL | < 0.25 µg/mL | < 0.25 µg/mL | < 0.25 µg/mL | > 25 µg/mL | MST (Mus musculus [24]): 6 days; MST (Mus musculus [25]): 3 days
CN(Cc1ccc(Cl)cc1)c1cnc2nc(N)nc(N)c2n1 | 4.3 days | – | – | – | – | – | – | – | – | – | – | MST (Mus musculus [26]): 5 days; MST (Mus musculus [27]): 7 days; MST (Mus musculus [28]): 4 days; MST (Mus musculus [29]): 3 days
CN(Cc1cc2ccccc2c2ccccc12)c1cnc2nc(N)nc(N)c2n1 | – | – | – | – | – | – | – | – | – | – | > 25 µg/mL | MIC (Pseudomonas aeruginosa [30]): > 25 µg/mL; MIC (Shigella sonnei [31]): > 25 µg/mL; MIC (Staphylococcus aureus [32]): < 0.25 µg/mL; MIC (Staphylococcus aureus [33]): < 0.25 µg/mL; MIC (Enterococcus faecalis [34]): < 0.25 µg/mL
CN(Cc1ccc(Cl)c(Cl)c1)c1cnc2nc(N)nc(N)c2n1 | 2.5 days | 10.6 days | – | 10 days | 10 µg/mL (≈ 28.6 µM) | > 25 µg/mL | > 25 µg/mL | < 0.25 µg/mL | < 0.25 µg/mL | < 0.25 µg/mL | > 25 µg/mL | MST (Mus musculus [35]): 10 days; MST (Mus musculus [36]): 5 days
CN(Cc1ccc2ccccc2c1)c1cnc2nc(N)nc(N)c2n1 | 5.9 days | – | > 25 µg/mL | 10 days | > 25 µg/mL | > 25 µg/mL | > 25 µg/mL | < 0.25 µg/mL | < 0.25 µg/mL | < 0.25 µg/mL | – | MST (Mus musculus [8]): 10 days; MST (Mus musculus [37]): 2 days; MST (Mus musculus [10]): 5 days
CN(Cc1cccc(C(F)(F)F)c1)c1cnc2nc(N)nc(N)c2n1 | 8.8 days | 12.2 days | > 25 µg/mL | – | 10 µg/mL (≈ 28.6 µM) | > 25 µg/mL | > 25 µg/mL | < 0.25 µg/mL | < 0.25 µg/mL | < 0.25 µg/mL | – | MST (Mus musculus [26]): 5 days; MST (Mus musculus [6]): 15.4 days
CN(Cc1ccc(F)cc1)c1cnc2nc(N)nc(N)c2n1 | – | 8.5 days | – | 10 days | 2.5 µg/mL (≈ 8.35 µM) | > 25 µg/mL | > 25 µg/mL | < 0.25 µg/mL | < 0.25 µg/mL | < 0.25 µg/mL | > 25 µg/mL | MST (Mus musculus [17]): 8 days
CN(Cc1ccc(Cl)c(Cl)c1)c1ccc2nc(N)nc(N)c2c1 | 8.7 days | – | – | – | – | – | – | – | – | – | – | MST (Mus musculus [8]): 10 days; MST (Mus musculus [38]): 10 days; MST (Mus musculus [39]): 8 days
COc1cc(Cc2cnc(N)nc2N)cc(OC)c1OC [TRIMETHOPRIM] | – | – | – | – | – | – | – | – | – | – | > 25 µg/mL | MIC [40]: > 25 µg/mL; MIC (Pseudomonas aeruginosa [30]): > 25 µg/mL; MIC (Shigella sonnei [31]): > 25 µg/mL; MIC (Staphylococcus aureus [32]): < 0.25 µg/mL; MIC (Staphylococcus aureus [33]): < 0.25 µg/mL; MIC (Enterococcus faecalis [34]): < 0.25 µg/mL
